Experimental data reported in ChEMBL document CHEMBL4804286, “3-amino-4-(4-(4 (dimethylcarbamoyl) phenyl)-1,4-diazepan-1-yl) thieno [2,3-b] pyridine-2-carboxamide for use in cancer therapy and formulations comprising the same” (2020).
Values joined by “and” are separate entries in the source; they are usually repeats but may differ in a detail not shown here. Equal entries are not always repeated. Active and inactive are the calls of the source. The calls are words filed in the database; no cut-off is given here.

Experiments:
[1] = target: Insulin-like growth factor 1 receptor (Homo sapiens) (UniProt P08069); assay: Inhibition of human IGF1R assessed as percent of control at 2000 nM by KINOMEscan assay relative to control; set-up: scale not given: the % may be the effect or the level left
[2] = target: Serine/threonine-protein kinase PAK 1 (Homo sapiens) (UniProt Q13153); assay: Inhibition of human PAK1 assessed as percent of control at 2000 nM by KINOMEscan assay relative to control; set-up: scale not given: the % may be the effect or the level left
[3] = target: cAMP-dependent protein kinase catalytic subunit PRKX (Homo sapiens) (UniProt P51817); assay: Inhibition of human PRKX assessed as percent of control at 2000 nM by KINOMEscan assay relative to control; set-up: scale not given: the % may be the effect or the level left
[4] = target: cAMP-dependent protein kinase catalytic subunit alpha (Homo sapiens) (UniProt P17612); assay: Inhibition of human PKAC-alpha assessed as percent of control at 2000 nM by KINOMEscan assay relative to control; set-up: scale not given: the % may be the effect or the level left
[5] = target: Phosphatidylinositol 3-kinase C2 domain-containing subunit gamma (Homo sapiens) (UniProt O75747); assay: Inhibition of human PIK3C2G assessed as percent of control at 2000 nM by KINOMEscan assay relative to control; set-up: scale not given: the % may be the effect or the level left
[6] = system: Myc-CaP; assay: Antiproliferative activity against murine castration-resistant Myc-CaP cells at 1 uM assessed as growth inhibition relative to control; format: functional; conditions: Mus musculus
[7] = system: Epidermal growth factor receptor (Homo sapiens), P00533 [G719C]; assay: Inhibition of human EGFR G719C mutant assessed as percent of control at 2000 nM by KINOMEscan assay relative to control; set-up: scale not given: the % may be the effect or the level left
[8] = target: Activin receptor type-1 (Homo sapiens) (UniProt Q04771); assay: Inhibition of human ACVR1 assessed as percent of control at 2000 nM by KINOMEscan assay relative to control; set-up: scale not given: the % may be the effect or the level left
[9] = system: Mast/stem cell growth factor receptor Kit (Homo sapiens), P10721 [L576P]; assay: Inhibition of human KIT L576P mutant assessed as percent of control at 2000 nM by KINOMEscan assay relative to control; set-up: scale not given: the % may be the effect or the level left
[10] = target: Serine/threonine-protein kinase ULK3 (Homo sapiens) (UniProt Q6PHR2); assay: Inhibition of human ULK3 assessed as percent of control at 2000 nM by KINOMEscan assay relative to control; set-up: scale not given: the % may be the effect or the level left
[11] = target: Serine/threonine-protein kinase NLK (Homo sapiens) (UniProt Q9UBE8); assay: Inhibition of human NLK assessed as percent of control at 2000 nM by KINOMEscan assay relative to control; set-up: scale not given: the % may be the effect or the level left
[12] = target: Calcium/calmodulin-dependent protein kinase kinase 1 (Homo sapiens) (UniProt Q8N5S9); assay: Inhibition of human CAMKK1 assessed as percent of control at 2000 nM by KINOMEscan assay relative to control; set-up: scale not given: the % may be the effect or the level left
[13] = target: Serine/threonine-protein kinase PLK3 (Homo sapiens) (UniProt Q9H4B4); assay: Inhibition of human PLK3 assessed as percent of control at 2000 nM by KINOMEscan assay relative to control; set-up: scale not given: the % may be the effect or the level left
[14] = target: Tyrosine-protein kinase ABL1 (Homo sapiens) (UniProt P00519); assay: Inhibition of non-phosphorylated human ABL1 assessed as percent of control at 2000 nM by KINOMEscan assay relative to control; set-up: scale not given: the % may be the effect or the level left
[15] = target: Mitogen-activated protein kinase kinase kinase kinase 5 (Homo sapiens) (UniProt Q9Y4K4); assay: Inhibition of human MAP4K5 assessed as percent of control at 2000 nM by KINOMEscan assay relative to control; set-up: scale not given: the % may be the effect or the level left
[16] = target: Serine/threonine-protein kinase 24 (Homo sapiens) (UniProt Q9Y6E0); assay: Inhibition of human MST3 assessed as percent of control at 2000 nM by KINOMEscan assay relative to control; set-up: scale not given: the % may be the effect or the level left
[17] = target: Tyrosine-protein kinase Mer (Homo sapiens) (UniProt Q12866); assay: Inhibition of human MERTK assessed as percent of control at 2000 nM by KINOMEscan assay relative to control; set-up: scale not given: the % may be the effect or the level left
[18] = system: ALK tyrosine kinase receptor (Homo sapiens), Q9UM73 [C1156Y]; assay: Inhibition of human ALK C1156Y mutant assessed as percent of control at 2000 nM by KINOMEscan assay relative to control; set-up: scale not given: the % may be the effect or the level left
[19] = target: Ephrin type-A receptor 6 (Homo sapiens) (UniProt Q9UF33); assay: Inhibition of human EPHA6 assessed as percent of control at 2000 nM by KINOMEscan assay relative to control; set-up: scale not given: the % may be the effect or the level left
[20] = target: Mast/stem cell growth factor receptor Kit (Homo sapiens) (UniProt P10721); assay: Inhibition of human KIT assessed as percent of control at 2000 nM by KINOMEscan assay relative to control; set-up: scale not given: the % may be the effect or the level left
[21] = target: Serine/threonine-protein kinase DCLK2 (Homo sapiens) (UniProt Q8N568); assay: Inhibition of human DCAMKL2 assessed as percent of control at 2000 nM by KINOMEscan assay relative to control; set-up: scale not given: the % may be the effect or the level left
[22] = target: Cyclin-dependent kinase 3 (Homo sapiens) (UniProt Q00526); assay: Inhibition of human CDK3 assessed as percent of control at 2000 nM by KINOMEscan assay relative to control; set-up: scale not given: the % may be the effect or the level left
[23] = target: Cyclin-dependent kinase 19 (Homo sapiens) (UniProt Q9BWU1); conditions: INHIBITOR, dose 2000.0 nM
Description: Inhibition of human CDK19 at 2000 nM by KINOMEscan assay

[24] = target: Non-receptor tyrosine-protein kinase TYK2 (Homo sapiens) (UniProt P29597); assay: Inhibition of human TYK2 JH1 catalytic domain assessed as percent of control at 2000 nM by KINOMEscan assay relative to control; set-up: scale not given: the % may be the effect or the level left
[25] = target: Phosphatidylinositol 4,5-bisphosphate 3-kinase catalytic subunit gamma isoform (Homo sapiens) (UniProt P48736); assay: Inhibition of human PIK3CG assessed as percent of control at 2000 nM by KINOMEscan assay relative to control; set-up: scale not given: the % may be the effect or the level left
[26] = target: Protein kinase C theta type (Homo sapiens) (UniProt Q04759); assay: Inhibition of human PRKCQ assessed as percent of control at 2000 nM by KINOMEscan assay relative to control; set-up: scale not given: the % may be the effect or the level left
[27] = system: Phosphatidylinositol 4,5-bisphosphate 3-kinase catalytic subunit alpha isoform (Homo sapiens), P42336 [E545K]; assay: Inhibition of human PIK3CA E545K mutant assessed as percent of control at 2000 nM by KINOMEscan assay relative to control; set-up: scale not given: the % may be the effect or the level left
[28] = target: Macrophage-stimulating protein receptor (Homo sapiens) (UniProt Q04912); assay: Inhibition of human MST1R assessed as percent of control at 2000 nM by KINOMEscan assay relative to control; set-up: scale not given: the % may be the effect or the level left
[29] = target: AP2-associated protein kinase 1 (Homo sapiens) (UniProt Q2M2I8); assay: Inhibition of human AAK1 assessed as percent of control at 2000 nM by KINOMEscan assay relative to control; set-up: scale not given: the % may be the effect or the level left
[30] = target: Casein kinase I isoform alpha (Homo sapiens) (UniProt P48729); conditions: INHIBITOR, dose 2000.0 nM
Description: Inhibition of human CSNK1A1 at 2000 nM by KINOMEscan assay

[31] = target: Mitogen-activated protein kinase kinase kinase 10 (Homo sapiens) (UniProt Q02779); assay: Inhibition of human MLK2 assessed as percent of control at 2000 nM by KINOMEscan assay relative to control; set-up: scale not given: the % may be the effect or the level left
[32] = target: Tyrosine-protein kinase TXK (Homo sapiens) (UniProt P42681); assay: Inhibition of human TXK assessed as percent of control at 2000 nM by KINOMEscan assay relative to control; set-up: scale not given: the % may be the effect or the level left
Tyrosine-protein kinase TXK (Homo sapiens), sequence (P42681 whole entry): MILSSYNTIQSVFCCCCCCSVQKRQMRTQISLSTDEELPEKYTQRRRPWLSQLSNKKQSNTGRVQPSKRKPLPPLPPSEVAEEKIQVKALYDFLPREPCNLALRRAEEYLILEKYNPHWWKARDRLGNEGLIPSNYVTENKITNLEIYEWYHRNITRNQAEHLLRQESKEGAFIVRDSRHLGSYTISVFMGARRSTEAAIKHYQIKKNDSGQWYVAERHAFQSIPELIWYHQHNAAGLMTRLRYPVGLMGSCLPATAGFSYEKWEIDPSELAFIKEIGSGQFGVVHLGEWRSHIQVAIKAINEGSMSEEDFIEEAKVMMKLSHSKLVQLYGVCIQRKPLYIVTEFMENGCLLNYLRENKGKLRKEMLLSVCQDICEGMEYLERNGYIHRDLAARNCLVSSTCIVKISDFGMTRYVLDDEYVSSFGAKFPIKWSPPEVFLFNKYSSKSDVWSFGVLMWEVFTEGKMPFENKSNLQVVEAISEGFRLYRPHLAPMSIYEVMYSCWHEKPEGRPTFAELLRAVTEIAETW

Non-receptor tyrosine-protein kinase TYK2 (Homo sapiens), sequence (P29597 whole entry, the tested form may be a part, canonical isoform): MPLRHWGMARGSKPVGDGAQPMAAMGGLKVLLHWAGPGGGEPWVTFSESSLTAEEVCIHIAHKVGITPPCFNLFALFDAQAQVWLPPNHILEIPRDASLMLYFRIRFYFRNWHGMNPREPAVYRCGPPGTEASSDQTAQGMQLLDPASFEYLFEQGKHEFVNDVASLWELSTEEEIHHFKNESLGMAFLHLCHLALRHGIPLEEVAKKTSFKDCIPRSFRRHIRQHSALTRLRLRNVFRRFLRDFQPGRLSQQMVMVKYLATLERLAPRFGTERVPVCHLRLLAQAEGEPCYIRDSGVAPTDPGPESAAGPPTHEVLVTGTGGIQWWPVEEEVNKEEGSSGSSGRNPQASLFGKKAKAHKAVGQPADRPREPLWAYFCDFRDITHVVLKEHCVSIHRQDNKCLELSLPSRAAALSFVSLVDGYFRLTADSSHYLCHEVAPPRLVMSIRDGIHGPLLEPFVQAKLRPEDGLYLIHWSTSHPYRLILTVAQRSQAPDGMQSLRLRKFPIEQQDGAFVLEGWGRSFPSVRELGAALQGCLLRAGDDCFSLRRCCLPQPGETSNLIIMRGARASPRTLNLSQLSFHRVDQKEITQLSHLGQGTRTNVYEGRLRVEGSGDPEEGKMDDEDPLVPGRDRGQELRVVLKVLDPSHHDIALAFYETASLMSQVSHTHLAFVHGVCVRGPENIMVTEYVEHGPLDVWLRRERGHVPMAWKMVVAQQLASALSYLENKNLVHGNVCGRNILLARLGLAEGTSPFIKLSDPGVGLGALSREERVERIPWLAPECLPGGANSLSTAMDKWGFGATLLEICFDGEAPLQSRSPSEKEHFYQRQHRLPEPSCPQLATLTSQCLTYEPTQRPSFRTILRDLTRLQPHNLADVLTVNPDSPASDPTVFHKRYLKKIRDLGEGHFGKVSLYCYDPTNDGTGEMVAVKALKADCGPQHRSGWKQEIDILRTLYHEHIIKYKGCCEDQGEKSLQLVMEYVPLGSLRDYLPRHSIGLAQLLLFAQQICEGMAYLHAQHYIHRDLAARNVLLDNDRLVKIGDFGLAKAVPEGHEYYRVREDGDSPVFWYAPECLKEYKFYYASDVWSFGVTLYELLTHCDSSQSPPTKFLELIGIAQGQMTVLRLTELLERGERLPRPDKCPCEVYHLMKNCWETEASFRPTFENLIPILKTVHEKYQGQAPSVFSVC
Tyrosine-protein kinase ABL1 (Homo sapiens), sequence (P00519 whole entry): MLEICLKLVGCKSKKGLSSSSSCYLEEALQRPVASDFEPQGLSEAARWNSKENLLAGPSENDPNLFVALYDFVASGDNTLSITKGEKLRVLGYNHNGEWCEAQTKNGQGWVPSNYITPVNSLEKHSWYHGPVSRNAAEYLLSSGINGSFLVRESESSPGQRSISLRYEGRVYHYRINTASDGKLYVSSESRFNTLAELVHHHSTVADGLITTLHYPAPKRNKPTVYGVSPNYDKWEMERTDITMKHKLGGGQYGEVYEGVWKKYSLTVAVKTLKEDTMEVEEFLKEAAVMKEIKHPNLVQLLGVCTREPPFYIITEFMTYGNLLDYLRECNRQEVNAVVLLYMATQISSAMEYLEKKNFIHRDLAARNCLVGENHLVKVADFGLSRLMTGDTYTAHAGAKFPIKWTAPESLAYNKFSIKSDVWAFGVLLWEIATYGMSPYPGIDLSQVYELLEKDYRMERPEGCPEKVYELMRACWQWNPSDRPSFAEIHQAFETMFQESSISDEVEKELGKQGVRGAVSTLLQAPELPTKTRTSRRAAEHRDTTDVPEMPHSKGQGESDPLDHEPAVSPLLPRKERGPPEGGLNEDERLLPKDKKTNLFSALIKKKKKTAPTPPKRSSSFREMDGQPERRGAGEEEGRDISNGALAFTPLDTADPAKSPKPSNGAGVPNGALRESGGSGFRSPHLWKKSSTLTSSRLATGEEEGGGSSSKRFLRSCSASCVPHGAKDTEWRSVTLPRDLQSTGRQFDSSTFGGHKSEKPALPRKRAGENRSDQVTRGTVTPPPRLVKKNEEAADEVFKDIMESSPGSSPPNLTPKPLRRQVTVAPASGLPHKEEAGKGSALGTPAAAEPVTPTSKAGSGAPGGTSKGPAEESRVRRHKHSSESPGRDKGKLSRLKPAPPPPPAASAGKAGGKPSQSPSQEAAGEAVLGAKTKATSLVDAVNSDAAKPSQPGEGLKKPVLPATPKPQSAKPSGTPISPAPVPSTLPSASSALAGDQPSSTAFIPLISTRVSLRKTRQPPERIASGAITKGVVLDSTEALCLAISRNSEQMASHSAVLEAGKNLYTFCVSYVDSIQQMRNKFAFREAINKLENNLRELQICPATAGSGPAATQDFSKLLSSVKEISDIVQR
AP2-associated protein kinase 1 (Homo sapiens), sequence (Q2M2I8 whole entry, looked up, canonical isoform): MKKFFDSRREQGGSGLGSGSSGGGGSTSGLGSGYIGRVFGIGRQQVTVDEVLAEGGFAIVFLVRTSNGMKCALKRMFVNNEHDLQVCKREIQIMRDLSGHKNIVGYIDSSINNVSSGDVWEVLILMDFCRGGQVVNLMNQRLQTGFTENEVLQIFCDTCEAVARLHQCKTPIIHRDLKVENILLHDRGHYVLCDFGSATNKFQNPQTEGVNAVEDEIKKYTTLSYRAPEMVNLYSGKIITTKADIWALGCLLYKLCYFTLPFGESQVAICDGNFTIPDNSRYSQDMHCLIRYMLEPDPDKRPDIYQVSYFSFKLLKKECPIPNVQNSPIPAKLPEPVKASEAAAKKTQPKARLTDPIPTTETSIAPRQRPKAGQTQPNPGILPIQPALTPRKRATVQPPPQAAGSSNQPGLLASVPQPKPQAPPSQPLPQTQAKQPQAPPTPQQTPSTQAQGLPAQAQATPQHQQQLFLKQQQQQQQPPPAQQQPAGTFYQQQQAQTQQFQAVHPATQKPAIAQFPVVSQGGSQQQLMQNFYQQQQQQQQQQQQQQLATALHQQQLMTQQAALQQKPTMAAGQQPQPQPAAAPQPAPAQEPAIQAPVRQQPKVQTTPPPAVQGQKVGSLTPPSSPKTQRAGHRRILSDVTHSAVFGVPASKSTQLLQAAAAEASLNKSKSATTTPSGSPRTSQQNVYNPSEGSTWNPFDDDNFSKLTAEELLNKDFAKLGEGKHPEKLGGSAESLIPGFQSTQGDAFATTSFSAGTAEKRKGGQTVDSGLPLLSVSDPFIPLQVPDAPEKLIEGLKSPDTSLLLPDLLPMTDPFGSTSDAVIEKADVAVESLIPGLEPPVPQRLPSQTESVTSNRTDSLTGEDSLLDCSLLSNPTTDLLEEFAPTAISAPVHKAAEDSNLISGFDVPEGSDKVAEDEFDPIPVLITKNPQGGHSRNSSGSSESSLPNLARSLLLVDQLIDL
Tyrosine-protein kinase Mer (Homo sapiens), sequence (Q12866 whole entry): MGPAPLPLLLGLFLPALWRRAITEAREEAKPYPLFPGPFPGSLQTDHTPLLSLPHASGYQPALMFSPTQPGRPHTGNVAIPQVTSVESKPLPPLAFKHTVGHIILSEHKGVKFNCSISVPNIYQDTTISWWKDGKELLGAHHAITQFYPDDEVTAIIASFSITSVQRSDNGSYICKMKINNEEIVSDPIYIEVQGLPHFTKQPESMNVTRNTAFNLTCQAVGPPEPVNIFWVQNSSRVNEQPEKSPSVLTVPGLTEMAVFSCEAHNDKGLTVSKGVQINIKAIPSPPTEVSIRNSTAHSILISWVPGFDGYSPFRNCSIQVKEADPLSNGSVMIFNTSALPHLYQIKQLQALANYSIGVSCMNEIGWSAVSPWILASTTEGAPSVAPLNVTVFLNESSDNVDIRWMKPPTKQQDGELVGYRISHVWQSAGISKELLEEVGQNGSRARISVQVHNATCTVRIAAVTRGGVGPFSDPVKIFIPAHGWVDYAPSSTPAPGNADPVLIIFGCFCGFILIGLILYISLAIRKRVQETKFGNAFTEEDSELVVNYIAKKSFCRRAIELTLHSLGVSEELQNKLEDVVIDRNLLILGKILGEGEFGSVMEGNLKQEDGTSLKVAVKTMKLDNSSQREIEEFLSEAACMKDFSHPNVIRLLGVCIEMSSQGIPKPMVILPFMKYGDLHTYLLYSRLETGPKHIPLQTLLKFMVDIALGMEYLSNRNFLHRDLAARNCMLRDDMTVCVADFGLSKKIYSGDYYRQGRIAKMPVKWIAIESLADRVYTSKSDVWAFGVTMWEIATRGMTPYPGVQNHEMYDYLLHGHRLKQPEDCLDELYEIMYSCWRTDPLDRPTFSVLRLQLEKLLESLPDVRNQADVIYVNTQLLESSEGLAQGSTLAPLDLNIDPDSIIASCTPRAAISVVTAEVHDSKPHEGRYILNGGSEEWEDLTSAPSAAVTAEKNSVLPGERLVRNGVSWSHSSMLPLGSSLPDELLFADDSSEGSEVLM

`CN(C)C(=O)c1ccc(N2CCCN(c3ccnc4sc(C(N)=O)c(N)c34)CC2)cc1` was tested, and the Activity [1] was 92% and 91%, the Activity [2] was 96% and 92% and the Activity [3] was 94% and 95%. The Activity [4] was 95% and 100%, the Activity [5] was 94% and 82% and the Activity [6] was “Active”. The Activity [7] was 97% and 100%, the Activity [8] was 100% and the Activity [9] was 96% and 75%. The Activity [10] was 96% and 79%, the Activity [11] was 98% and the Activity [12] was 96% and 100%. For the same compound, the Activity [13] was 86% and 90%, the Activity [14] was 95% and 78% and the Activity [15] was 100% and 97%. For the same compound, the Activity [16] was 97% and 84%, the Activity [17] was 89% and 100% and the Activity [18] was 100% and 78%. It also gave an Activity [19] of 100%, an Activity [20] of 95% and an Activity [21] of 100%. The Activity [22] was 92% and 97%, the inhibition [23] was over 65% and the Activity [24] was 95% and 82%. For the same compound, the Activity [25] was 79% and 76%, the Activity [26] was 90% and 87% and the Activity [27] was 96% and 91%. For the same compound, the Activity [28] was 97% and 99%, the Activity [29] was 94% and 90% and the inhibition [30] was over 65%. The Activity [31] was 100% and 95% and the Activity [32] was 93% and 100%.
